# Source: US20090023718A1 (Aton Pharma, Inc., priority 2003, published 2009)
# Target: T1, histone deacetylase, subtype 1 (HDAC1) (Homo sapiens, UniProt Q13547)
# T1 construct: Flag; made in house
# Assay: HDAC1-Flag assay (in vitro fluorescent deacetylation assay)
# Type: biochemical
# Details: Table 1, compounds of formula II; epitope-tagged human HDAC1 complex, substrate at Km; mean ± spread (N); read-out: HDAC Inhibition (IC50) nm
# Protocol: Novel compounds were tested for their ability to inhibit histone deacetylase, subtype 1 (HDAC1) using an in vitro deacetylation assay. The enzyme source for this assay was an epitope-tagged human HDAC1 complex immuno-purified from stably expressing mammalian cells. The substrate consisted of a commercial product containing an acetylated lysine side chain (BIOMOL Research Laboratories, Inc., Plymouth Meeting, Pa.). Upon deacetylation of the substrate by incubation with the purified HDAC1 complex, a fluorophore is produced that is directly proportional to the level of deacetylation.
# T1 sequence (Q13547 whole entry): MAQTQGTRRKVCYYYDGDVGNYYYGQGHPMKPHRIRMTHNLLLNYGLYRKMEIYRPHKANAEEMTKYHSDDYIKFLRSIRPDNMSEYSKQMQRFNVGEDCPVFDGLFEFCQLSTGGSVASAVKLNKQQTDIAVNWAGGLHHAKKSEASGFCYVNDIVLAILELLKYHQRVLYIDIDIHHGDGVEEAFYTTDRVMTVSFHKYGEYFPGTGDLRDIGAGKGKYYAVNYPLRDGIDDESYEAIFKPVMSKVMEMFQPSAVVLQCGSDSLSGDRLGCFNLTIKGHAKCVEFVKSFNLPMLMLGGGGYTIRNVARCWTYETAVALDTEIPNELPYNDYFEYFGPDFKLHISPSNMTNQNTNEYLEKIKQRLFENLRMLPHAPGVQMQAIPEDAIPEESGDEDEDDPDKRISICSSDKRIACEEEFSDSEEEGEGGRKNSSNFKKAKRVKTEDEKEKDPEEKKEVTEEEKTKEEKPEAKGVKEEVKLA
row,IC50 [nM],Compound
1,861 ± 403,"O=C(CCCCCCC(=O)N(CC(=O)Nc1cccc(OCc2ccccc2)c1)CC(=O)Nc1cccc(OCc2ccccc2)c1)NO [Compound 23, Octanedioic acid bis-[(3-benzyloxy-phenylcarbamoyl)-methyl]-amide hydroxyamide]"
2,848 ± 481,"O=C(CCCCCCC(=O)N(CC(=O)Nc1ccc(OCc2ccccc2)cc1)CC(=O)Nc1ccc(OCc2ccccc2)cc1)NO [Compound 22, Octanedioic acid bis-[(4-benzyloxy-phenylcarbamoyl)-methyl]-amide hydroxyamide]"
3,539 ± 97,"O=C(CCCCCCC(=O)N(CC(=O)NC1CCCCC1)CC(=O)NC1CCCCC1)NO [Compound 21, Octanedioic acid bis-cyclohexylcarbamoylmethyl-amide hydroxyamide]"
4,231 ± 65.5,"O=C(CCCCCCC(=O)N(CC(=O)NCCc1ccccc1)CC(=O)NCCc1ccccc1)NO [Compound 19, Octanedioic acid bis-(phenethylcarbamoyl-methyl)-amide hydroxyamide]"
5,27.5 ± 10.6,"O=C(CCCCCC(=O)N(CC(=O)NCc1ccccc1)CC(=O)Nc1ccccc1)NO [Compound 10, Heptanedioic acid (benzylcarbamoyl-methyl)-phenylcarbamoylmethyl-amide hydroxyamide]"
6,159 ± 159,"O=C(CCCCCC(=O)N(CC(=O)Nc1cccc(OCc2ccccc2)c1)CC(=O)Nc1cccc(OCc2ccccc2)c1)NO [Compound 18, Heptanedioic acid bis-[(3-benzyloxy-phenylcarbamoyl)-methyl]-amide hydroxyamide]"
7,58 ± 9.8,"O=C(CCCCCC(=O)N(CC(=O)NCCc1ccccc1)CC(=O)NCCc1ccccc1)NO [Compound 12, Heptanedioic acid bis-(phenethylcarbamoyl-methyl)-amide hydroxyamide]"
8,84 ± 8.4,"Cn1c(NC(=O)CN(CC(=O)Nc2nc3ccccc3n2C)C(=O)CCCCCC(=O)NO)nc2ccccc21 [Compound 38, Heptanedioic acid bis-[(1-methyl-1H-benzoimidazol-2-ylcarbamoyl)-methyl]-amide hydroxyamide]"
9,449 ± 40.3,"O=C(CCCCCC(=O)N(CC(=O)Nc1ccccc1Oc1ccccc1)CC(=O)Nc1ccccc1Oc1ccccc1)NO [Compound 26, Heptanedioic acid bis-[(2-phenoxy-phenylcarbamoyl)-methyl]-amide hydroxyamide]"
10,152 ± 48.7,CC(C)(C)c1ccc(NC(=O)CN(CC(=O)Nc2ccc(C(C)(C)C)cc2)C(=O)CCCCCC(=O)NO)cc1 [Compound 32]
11,61.5 ± 6.3,"O=C(CCCCCC(=O)N(CC(=O)NCc1ccccc1)CC(=O)NCc1ccccc1)NO [Compound 13, Heptanedioic acid bis-(benzylcarbamoyl-methyl)-amide hydroxyamide]"
12,137 ± 18.3,"O=C(CCCCCC(=O)N(CC(=O)Nc1cccc(Oc2ccccc2)c1)CC(=O)Nc1cccc(Oc2ccccc2)c1)NO [Compound 30, Heptanedioic acid bis-[(3-phenoxy-phenylcarbamoyl)-methyl]-amide hydroxyamide]"
13,59 ± 18.3,"O=C(CCCCCC(=O)N(CC(=O)Nc1ccc2c(c1)Cc1ccccc1-2)CC(=O)Nc1ccc2c(c1)Cc1ccccc1-2)NO [Compound 31, Heptanedioic acid bis-[(9H-fluoren-2-ylcarbamoyl)-methyl]-amide hydroxyamide]"
14,33 ± 12.7,"Cc1ccc(S(=O)(=O)Nc2ccc(NC(=O)CN(CC(=O)Nc3ccc(NS(=O)(=O)c4ccc(C)cc4)cc3)C(=O)CCCCCC(=O)NO)cc2)cc1 [Compound 28, Heptanedioic acid bis{[4-(toluene-4-sulfonylamino)-phenylcarbamoyl]-methyl}-amide hydroxyamide]"
15,5.5 ± 0.7,"O=C(CCCCCC(=O)N(CC(=O)Nc1ccc2ncccc2c1)CC(=O)Nc1ccc2ncccc2c1)NO [Compound 2, Heptanedioic acid bis-(quinolin-ylcarbamoylmethyl)-amide hydroxyamide]"
16,82 ± 9.8,Hexanedioic acid bis-(quinolin-8-ylcarbamoylmethyl)-amide hydroxyamide [Compound 15]
17,76 ± 14.1,"O=C(CCCCCC(=O)N(CC(=O)NC1CCCCC1)CC(=O)NC1CCCCC1)NO [Compound 14, Heptanedioic acid bis-cyclohexylcarbamoylmethyl-amide hydroxyamide]"
18,102 ± 33.2,"O=C(CCCCCCC(=O)N(CC(=O)Nc1ccc2ncccc2c1)CC(=O)Nc1ccc2ncccc2c1)NO [Compound 17, Octanedioic acid bis-(quinolin-6-ylcarbamoylmethyl)-amide hydroxyamide]"

# Same assay, conditions: Table 2, compounds of formula III; epitope-tagged human HDAC1 complex, substrate at Km; mean ± spread (N); read-out: HDAC Inhibition (IC50) nm
row,IC50 [nM],Compound
1,907 ± 60.8,"O=C(CCCCN(CC(=O)NCc1ccccc1)CC(=O)NCc1ccccc1)NO [Compound 55, 5-[Bis-(benzylcarbamoyl-methyl)-amino]-pentanoic acid hydroxyamide]"
2,55.5 ± 0.7,"O=C(CCCCCN(CC(=O)NCCc1ccccc1)CC(=O)NCCc1ccccc1)NO [Compound 42, 6-[Bis-(phenethylcarbamoyl-methyl)-amino]-hexanoic acid hydroxyamide]"
3,288 ± 53,"CC(C)CNC(=O)CN(CCCCCC(=O)NO)CC(=O)NCC(C)C [Compound 51, 6-[Bis-(isobutylcarbamoyl-methyl)-amino]-hexanoic acid hydroxyamide]"
4,181 ± 23.3,"O=C(CCCCCCCN(CC(=O)NCc1ccccc1)CC(=O)NCc1ccccc1)NO [Compound 47, 8-[Bis-(benzylcarbamoyl-methyl)-amino]-octanoic acid hydroxyamide]"
5,267 ± 32.5,"O=C(CCCCCN(CC(=O)NC1CCCCC1)CC(=O)NC1CCCCC1)NO [Compound 50, 6-(Bis-cyclohexylcarbamoylmethyl-amino)-hexanoic acid hydroxyamide]"
6,873 ± 57.9,"O=C(CCCCCN(CC(=O)N1CCC(Cc2ccccc2)CC1)CC(=O)N1CCC(Cc2ccccc2)CC1)NO [Compound 53, 6-{Bis-[2-(4-benzyl-piperidin-1-yl)-2-oxo-ethyl]-amino}-hexanoic acid hydroxyamide]"
7,140 ± 16.2,"O=C(CCCCCN(CC(=O)N1CCN(c2ccccc2)CC1)CC(=O)N1CCN(c2ccccc2)CC1)NO [Compound 45, 6-{Bis-[2-oxo-2-(4-phenyl-piperazin-1-yl)-ethyl]-amino}-hexanoic acid hydroxyamide]"
8,191 ± 20.5,"O=C(CCCCCCCN(CC(=O)NCCc1ccccc1)CC(=O)NCCc1ccccc1)NO [Compound 49, 8-[Bis-(phenethylcarbamoyl-methyl)-amino]-octanoic acid hydroxyamide]"
9,153 ± 29.6,"6-{Bis-[2-(3,4-dihydro-1H-isoquinolin-2-yl)-2-oxo-ethyl]-amino}-hexanoic acid hydroxyamide [Compound 46]"
10,886 ± 20.5,"O=C(CCCCN(CC(=O)NCCc1ccccc1)CC(=O)NCCc1ccccc1)NO [Compound 54, 5-[Bis-(phenethylcarbamoyl-methyl)-amino]-pentanoic acid hydroxyamide]"

# Same assay, conditions: Table 3, compounds of formula IV; epitope-tagged human HDAC1 complex, substrate at Km; mean ± spread (N); read-out: HDAC Inhibition (IC50) nm
row,IC50 [nM],Compound
1,899 ± 243,O=C(CCCCC(=O)N(Cc1ccccc1)Cc1ccccc1)NO [Compound 58]
2,301 ± 21.2,O=C(CCCCCCC(=O)N1CCN(C(=O)OCc2ccccc2)CC1)NO [Compound 65]
3,36.5 ± 4.9,8-[4-(4-Chloro-phenyl)-piperazin-1-yl]-8-oxo-octanoic acid hydroxyamide [Compound 78]
4,988 ± 93.3,"O=C(CCCC(=O)N1CCN(c2ccc(Cl)cc2)CC1)NO [Compound 73, 5-[4-(4-Chloro-phenyl)-piperazin-1-yl]-5-oxo-pentanoic acid hydroxyamide]"
5,434 ± 2.8,O=C(CCCCCCCCC(=O)N(CCc1ccccc1)Cc1ccccc1)NO [Compound 64]
6,2590 ± 807,O=C(CCCCC(=O)N(CCc1ccccc1)Cc1ccccc1)NO [Compound 59]
7,16200,O=C(CCC(=O)N1CCN(c2ccc(Cl)cc2)CC1)NO [Compound 67]
8,474 ± 36,"O=C(CCCC(=O)N1CCN(c2cccc(Cl)c2)CC1)NO [Compound 72, 5-[4-(3-Chloro-phenyl)-piperazin-1-yl]-5-oxo-pentanoic acid hydroxyamide]"
9,39 ± 2.8,"O=C(CCCCCCC(=O)N1CCN(c2cccc(Cl)c2)CC1)NO [Compound 77, 8-[4-(3-Chloro-phenyl)-piperazin-1-yl]-8-oxo-octanoic acid hydroxyamide]"
10,621 ± 94,"O=C(CCCCC(=O)N1CCN(c2cccc(Cl)c2)CC1)NO [Compound 75, 6-[4-(3-Chloro-phenyl)-piperazin-1-yl]-6-oxo-hexanoic acid hydroxyamide]"
11,162 ± 88.3,O=C(CCCCCC(=O)N(CCc1c[nH]c2ccccc12)Cc1ccc(Br)cc1)NO [Compound 61]
12,591 ± 46.6,O=C(CCCCCCC(=O)N(CCc1ccccc1)Cc1ccccc1)NO [Compound 63]
13,73300,O=C(CCC(=O)N1CCN(c2ccccc2Cl)CC1)NO [Compound 68]
14,1350 ± 106,"O=C(CCCCC(=O)N1CCN(c2ccccc2)CC1)NO [Compound 74, 6-Oxo-6-(4-phenyl-piperazin-1-yl)-hexanoic acid hydroxyamide]"

# Same assay, conditions: Table 4, compounds of formula V; epitope-tagged human HDAC1 complex, substrate at Km; mean ± spread (N); read-out: HDAC Inhibition (IC50) nm
row,IC50 [nM],Compound
1,374 ± 39.5,O=C(CCCCCCN(Cc1ccccc1)Cc1ccccc1)NO [Compound 80]
2,188 ± 72.8,O=C(CCCCCCN(CCc1c[nH]c2ccccc12)Cc1ccc(Br)cc1)NO [Compound 82]
3,204 ± 58.6,O=C(CCCCCCCN(CCc1c[nH]c2ccccc12)Cc1ccc(Br)cc1)NO [Compound 83]

# Same assay, conditions: Table 5, other HDAC inhibitors of formula I; epitope-tagged human HDAC1 complex, substrate at Km; mean ± spread (N); read-out: HDAC Inhibition (IC50) nm
row,IC50 [nM],Compound
1,247 ± 33.2,CN(CCCCCC(=O)NO)CC(=O)NCCc1ccccc1 [Compound 86]
